# Data reported in the supplement of paper PMC10307832.
# Columns and labels:
# Assay in all cases: relative viability (nuclei count vs DMSO), 5 days (fraction); higher = more cells survive
# NCI-H2085 = system: NCI-H2085
# In short: (§1)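 Dosing by pin tool came one day after lung cancer cell lines were seeded in 1536-well plates, using either one drug or a fixed anchor-drug dose plus five library-drug doses (not always all listed) in √10 steps. After 5 days, nuclei were counted on 4× images. Relative viability is treated-well nuclei count divided by vehicle-well nuclei count, and values are medians of duplicate plates.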
# A-427 = system: A-427
# In short: as §1
# HARA = system: HARA
# In short: as §1
# NCI-H596 = system: NCI-H596
# In short: as §1
# NCI-H661 = system: NCI-H661
# In short: as §1
# NCI-H2126 = system: NCI-H2126
# In short: as §1
# NCI-H1651 = system: NCI-H1651
# In short: as §1
# NCI-H520 = system: NCI-H520
# In short: as §1
# ABC-1 = system: ABC-1
# In short: as §1
# NCI-H460 = system: NCI-H460
# In short: as §1
# RERF-LC-KJ = system: RERF-LC-KJ
# In short: as §1
# NCI-H727 = system: NCI-H727
# In short: as §1
# NCI-H1666 = system: NCI-H1666
# In short: as §1
# BEN = system: BEN
# In short: as §1
# NCI-H1734 = system: NCI-H1734
# In short: as §1
# LOU-NH91 = system: LOU-NH91
# In short: as §1
# NCI-H647 = system: NCI-H647
# In short: as §1
# NCI-H1975 = system: NCI-H1975
# In short: as §1
# LCLC-103H = system: LCLC-103H
# In short: as §1
# CAL-12T = system: CAL-12T
# In short: as §1
# NCI-H838 = system: NCI-H838
# In short: as §1
# NCI-H1944 = system: NCI-H1944
# In short: as §1
smiles,measurement,setting,value
Cc1cn(-c2cc(NC(=O)c3ccc(C)c(Nc4nccc(-c5cccnc5)n4)c3)cc(C(F)(F)F)c2)cn1 [Nilotinib] + C[C@@H](Oc1cc(-c2cnn(C3CCNCC3)c2)cnc1N)c1c(Cl)ccc(F)c1Cl [Crizotinib] (partner 1 µM),relative viability,NCI-H2085; first compound 0.001 µM,0.982
same,relative viability,NCI-H2085; first compound 0.003162 µM,0.895
same,relative viability,NCI-H2085; first compound 0.01 µM,0.971
same,relative viability,NCI-H2085; first compound 0.03162 µM,0.721
same,relative viability,NCI-H2085; first compound 0.1 µM,0.884
same,relative viability,A-427; first compound 0.001 µM,0.715
same,relative viability,A-427; first compound 0.01 µM,1.25
same,relative viability,A-427; first compound 0.03162 µM,0.548
same,relative viability,A-427; first compound 0.1 µM,0.546
same,relative viability,HARA; first compound 0.001 µM,1.09
same,relative viability,HARA; first compound 0.003162 µM,1.42
same,relative viability,HARA; first compound 0.01 µM,1.61
same,relative viability,HARA; first compound 0.03162 µM,0.886
same,relative viability,HARA; first compound 0.1 µM,1.05
same,relative viability,NCI-H596; first compound 0.001 µM,0.937
same,relative viability,NCI-H596; first compound 0.01 µM,1.07
same,relative viability,NCI-H596; first compound 0.03162 µM,0.958
same,relative viability,NCI-H596; first compound 0.1 µM,1.1
same,relative viability,NCI-H661; first compound 0.001 µM,0.879
same,relative viability,NCI-H661; first compound 0.003162 µM,1.12
same,relative viability,NCI-H661; first compound 0.01 µM,1.03
same,relative viability,NCI-H661; first compound 0.03162 µM,0.945
same,relative viability,NCI-H661; first compound 0.1 µM,0.93
same,relative viability,NCI-H2126; first compound 0.001 µM,1.02
same,relative viability,NCI-H2126; first compound 0.003162 µM,1.23
same,relative viability,NCI-H2126; first compound 0.01 µM,1.39
same,relative viability,NCI-H2126; first compound 0.03162 µM,0.966
same,relative viability,NCI-H2126; first compound 0.1 µM,0.943
same,relative viability,NCI-H1651; first compound 0.001 µM,0.853
same,relative viability,NCI-H1651; first compound 0.003162 µM,0.986
same,relative viability,NCI-H1651; first compound 0.01 µM,1
same,relative viability,NCI-H1651; first compound 0.03162 µM,0.838
same,relative viability,NCI-H1651; first compound 0.1 µM,0.816
same,relative viability,NCI-H520; first compound 0.001 µM,0.656
same,relative viability,NCI-H520; first compound 0.01 µM,0.866
same,relative viability,NCI-H520; first compound 0.03162 µM,0.483
same,relative viability,NCI-H520; first compound 0.1 µM,0.678
same,relative viability,ABC-1; first compound 0.001 µM,1.16
same,relative viability,ABC-1; first compound 0.003162 µM,1.03
same,relative viability,ABC-1; first compound 0.01 µM,1.5
same,relative viability,ABC-1; first compound 0.03162 µM,0.913
same,relative viability,ABC-1; first compound 0.1 µM,1.34
same,relative viability,NCI-H460; first compound 0.001 µM,0.752
same,relative viability,NCI-H460; first compound 0.003162 µM,1.06
same,relative viability,NCI-H460; first compound 0.01 µM,1.56
same,relative viability,NCI-H460; first compound 0.03162 µM,0.245
same,relative viability,NCI-H460; first compound 0.1 µM,0.901
same,relative viability,RERF-LC-KJ; first compound 0.001 µM,0.872
same,relative viability,RERF-LC-KJ; first compound 0.003162 µM,0.891
same,relative viability,RERF-LC-KJ; first compound 0.01 µM,0.917
same,relative viability,RERF-LC-KJ; first compound 0.03162 µM,0.814
same,relative viability,RERF-LC-KJ; first compound 0.1 µM,0.867
same,relative viability,NCI-H727; first compound 0.001 µM,0.865
same,relative viability,NCI-H727; first compound 0.01 µM,1.05
same,relative viability,NCI-H727; first compound 0.03162 µM,0.575
same,relative viability,NCI-H727; first compound 0.1 µM,0.483
same,relative viability,NCI-H1666; first compound 0.001 µM,0.826
same,relative viability,NCI-H1666; first compound 0.003162 µM,0.983
same,relative viability,NCI-H1666; first compound 0.01 µM,0.964
same,relative viability,NCI-H1666; first compound 0.03162 µM,0.936
same,relative viability,NCI-H1666; first compound 0.1 µM,1.11
same,relative viability,BEN; first compound 0.001 µM,0.731
same,relative viability,BEN; first compound 0.003162 µM,0.978
same,relative viability,BEN; first compound 0.01 µM,1.21
same,relative viability,BEN; first compound 0.1 µM,0.971
same,relative viability,NCI-H1734; first compound 0.001 µM,0.68
same,relative viability,NCI-H1734; first compound 0.003162 µM,0.659
same,relative viability,NCI-H1734; first compound 0.01 µM,0.717
same,relative viability,NCI-H1734; first compound 0.03162 µM,0.433
same,relative viability,NCI-H1734; first compound 0.1 µM,0.475
same,relative viability,LOU-NH91; first compound 0.001 µM,0.763
same,relative viability,LOU-NH91; first compound 0.003162 µM,0.722
same,relative viability,LOU-NH91; first compound 0.01 µM,0.76
same,relative viability,LOU-NH91; first compound 0.03162 µM,0.722
same,relative viability,LOU-NH91; first compound 0.1 µM,0.768
same,relative viability,NCI-H647; first compound 0.001 µM,1.05
same,relative viability,NCI-H647; first compound 0.003162 µM,1.34
same,relative viability,NCI-H647; first compound 0.03162 µM,0.749
same,relative viability,NCI-H647; first compound 0.1 µM,0.716
same,relative viability,NCI-H1975; first compound 0.001 µM,0.811
same,relative viability,NCI-H1975; first compound 0.003162 µM,1.11
same,relative viability,NCI-H1975; first compound 0.01 µM,1.16
same,relative viability,NCI-H1975; first compound 0.03162 µM,0.616
same,relative viability,NCI-H1975; first compound 0.1 µM,0.907
same,relative viability,LCLC-103H; first compound 0.003162 µM,1.07
same,relative viability,LCLC-103H; first compound 0.03162 µM,0.945
same,relative viability,LCLC-103H; first compound 0.1 µM,1.08
same,relative viability,CAL-12T; first compound 0.003162 µM,0.519
same,relative viability,CAL-12T; first compound 0.01 µM,0.902
same,relative viability,CAL-12T; first compound 0.03162 µM,0.345
same,relative viability,CAL-12T; first compound 0.1 µM,0.6
same,relative viability,NCI-H838; first compound 0.001 µM,0.896
same,relative viability,NCI-H838; first compound 0.003162 µM,0.81
same,relative viability,NCI-H838; first compound 0.01 µM,1.03
same,relative viability,NCI-H838; first compound 0.03162 µM,0.673
same,relative viability,NCI-H838; first compound 0.1 µM,0.926
same,relative viability,NCI-H1944; first compound 0.001 µM,1.18
same,relative viability,NCI-H1944; first compound 0.003162 µM,1.24
same,relative viability,NCI-H1944; first compound 0.01 µM,1.21
same,relative viability,NCI-H1944; first compound 0.03162 µM,1.16
same,relative viability,NCI-H1944; first compound 0.1 µM,0.939
